In US20240408096A1, “DOSING REGIMENS FOR ORAL ALK2 KINASE INHIBITORS” (BioCryst Pharmaceuticals, Inc., priority 2020, published 2024):

Legend:
[1] = Phase 1 Part 1 (SAD) safety and tolerability; assay type: in vivo, human; conditions: healthy subjects
Protocol: The primary outcome measure of Part 1 and Part 2 will be: (1) measurement of the safety and tolerability by subject incidence of graded treatment-emergent adverse events (TEAEs), laboratory abnormalities, and changes to vital signs, ECGs, cardiac telemetry, and physical examination findings.
Four sequential SAD cohorts were dosed.
For each cohort of Part 1, the daily dose of study drug was administered as a single dose (1 time daily or QD). In Part 1 of the study, following a screening period to determine eligibility, subjects in each cohort entered the Phase 1 clinical research unit (CRU) on the afternoon of Day −1. Study eligibility was re-confirmed upon admission to the CRU, and subjects remained in the CRU overnight prior to dosing on Day 1. Following Day 1, subjects remained in the CRU for an additional 72 hours post-dose (i.e., discharge on Day 4) to enable collection of plasma and urine for PK samples and other study assessments. Subjects were discharged from the CRU following plasma PK sample collection on Day 4 and returned on Day 16 (+2 days) for a final follow-up visit.

[2] = biological target: T1, CYP2A6 (Homo sapiens, UniProt P11509); assay: CYP inhibition in vitro; assay type: in vitro ADME
T1 sequence (P11509 1-494): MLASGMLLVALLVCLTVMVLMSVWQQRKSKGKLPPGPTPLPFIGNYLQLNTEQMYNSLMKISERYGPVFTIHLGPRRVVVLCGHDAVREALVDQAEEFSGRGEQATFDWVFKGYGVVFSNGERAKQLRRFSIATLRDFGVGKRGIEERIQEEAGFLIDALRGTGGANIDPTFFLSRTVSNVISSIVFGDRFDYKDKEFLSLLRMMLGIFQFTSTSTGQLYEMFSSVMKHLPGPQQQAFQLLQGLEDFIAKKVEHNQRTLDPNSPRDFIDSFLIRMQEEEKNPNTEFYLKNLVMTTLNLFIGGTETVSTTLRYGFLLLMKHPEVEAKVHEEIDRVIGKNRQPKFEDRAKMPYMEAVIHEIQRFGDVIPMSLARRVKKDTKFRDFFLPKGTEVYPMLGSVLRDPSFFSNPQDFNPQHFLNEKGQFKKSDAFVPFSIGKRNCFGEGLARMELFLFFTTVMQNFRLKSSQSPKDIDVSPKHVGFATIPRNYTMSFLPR

[3] = Phase 1 Parts 1 and 2 Holter ECG pharmacodynamics / exposure-response; assay type: in vivo, human
Protocol: ECGs were obtained according to the schedule in Tables 4 and 5 for Parts 1 and 2, respectively. A standard bedside 12-lead ECG machine or telemetry system that calculates HR and measures the PR, QRS, QT, RR, and QTc (QTcF) intervals was used. The acceptable deviations from the nominal ECG measurement time points were: re-dose: ≤2 hours before dosing; post dose: ±15 minutes from the nominal post-dose time point; and discharge: ±1 hour from the nominal time point.
Where possible, Holter-obtained and adjudicated ECGs were used to determine the change from baseline in mean differences in QTcF between each active treatment chosen to be analyzed relative to that obtained on subjects receiving placebo within a study part (for Part 2, within each cohort). At each time point Holter ECGs are analyzed, an individual subject's change from baseline will be calculated as:
Δik=(QTcF for subject I at time point k−Baseline QTcF), where QTcF measurements will be the average of triplicate ECGs at each time point. Baseline QTcF is the average of all pre-dose values.

[4] = biological target: CYP2C9 (Homo sapiens, UniProt P11712); assay: CYP inhibition in vitro; assay type: in vitro ADME
Sequence of CYP2C9 (P11712 whole entry): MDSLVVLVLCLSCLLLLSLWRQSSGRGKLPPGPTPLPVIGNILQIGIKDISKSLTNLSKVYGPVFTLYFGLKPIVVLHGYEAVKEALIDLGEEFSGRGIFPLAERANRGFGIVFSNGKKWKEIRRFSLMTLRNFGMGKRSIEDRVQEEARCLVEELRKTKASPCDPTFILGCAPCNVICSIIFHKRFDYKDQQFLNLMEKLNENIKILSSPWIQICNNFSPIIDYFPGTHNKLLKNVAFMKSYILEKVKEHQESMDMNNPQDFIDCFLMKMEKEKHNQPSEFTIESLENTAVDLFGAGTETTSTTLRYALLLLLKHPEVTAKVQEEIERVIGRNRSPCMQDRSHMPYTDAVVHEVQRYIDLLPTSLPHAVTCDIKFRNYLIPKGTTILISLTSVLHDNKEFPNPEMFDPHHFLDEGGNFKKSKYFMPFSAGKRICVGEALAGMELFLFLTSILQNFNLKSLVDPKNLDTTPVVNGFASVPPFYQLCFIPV

[5] = biological target: T2, CYP2C8 (Homo sapiens, UniProt P10632); assay: CYP inhibition in vitro; assay type: in vitro ADME
T2 sequence (P10632 1-490): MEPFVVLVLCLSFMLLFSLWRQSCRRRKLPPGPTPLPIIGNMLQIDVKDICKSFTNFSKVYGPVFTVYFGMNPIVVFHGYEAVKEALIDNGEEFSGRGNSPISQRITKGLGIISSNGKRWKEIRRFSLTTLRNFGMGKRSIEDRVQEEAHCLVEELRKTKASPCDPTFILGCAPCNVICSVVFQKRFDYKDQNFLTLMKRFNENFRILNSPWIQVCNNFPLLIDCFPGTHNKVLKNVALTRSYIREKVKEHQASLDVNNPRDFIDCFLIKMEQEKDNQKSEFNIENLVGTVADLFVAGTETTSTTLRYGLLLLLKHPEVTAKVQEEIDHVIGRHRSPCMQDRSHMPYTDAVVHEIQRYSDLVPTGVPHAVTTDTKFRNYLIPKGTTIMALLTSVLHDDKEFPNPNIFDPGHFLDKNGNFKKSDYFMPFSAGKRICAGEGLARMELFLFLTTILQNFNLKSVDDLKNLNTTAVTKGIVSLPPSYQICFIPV

[6] = in vitro genotoxicity: numerical chromosomal aberrations; assay type: cell-based
[7] = biological target: CYP2C19 (Homo sapiens, UniProt P33261); assay: CYP inhibition in vitro; assay type: in vitro ADME
Sequence of CYP2C19 (P33261 whole entry): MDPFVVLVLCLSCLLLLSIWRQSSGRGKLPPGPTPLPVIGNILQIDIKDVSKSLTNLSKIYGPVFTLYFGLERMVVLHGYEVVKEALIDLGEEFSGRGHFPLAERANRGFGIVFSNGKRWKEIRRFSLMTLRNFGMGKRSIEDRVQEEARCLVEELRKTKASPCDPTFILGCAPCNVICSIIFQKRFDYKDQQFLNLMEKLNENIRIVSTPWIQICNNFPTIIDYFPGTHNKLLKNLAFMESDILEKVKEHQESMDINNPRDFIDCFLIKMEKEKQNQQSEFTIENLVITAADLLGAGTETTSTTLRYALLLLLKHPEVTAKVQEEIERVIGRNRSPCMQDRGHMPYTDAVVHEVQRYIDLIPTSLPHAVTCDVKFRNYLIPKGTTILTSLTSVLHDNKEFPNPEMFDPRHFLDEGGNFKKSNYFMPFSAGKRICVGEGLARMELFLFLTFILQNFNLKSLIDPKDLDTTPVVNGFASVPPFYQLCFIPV

[8] = tested on: G-protein coupled receptor (GPCRs) related kinases; assay: off-target screening study
[9] = tested on: CYP3A; assay: CYP inhibition in vitro; assay type: in vitro ADME
[10] = rat micronucleus-comet genotoxicity assays; conditions: in vivo
[11] = biological target: CYP3A4 (Homo sapiens, UniProt P08684); assay: CYP inhibition in vitro; assay type: in vitro ADME
Sequence of CYP3A4 (P08684 whole entry): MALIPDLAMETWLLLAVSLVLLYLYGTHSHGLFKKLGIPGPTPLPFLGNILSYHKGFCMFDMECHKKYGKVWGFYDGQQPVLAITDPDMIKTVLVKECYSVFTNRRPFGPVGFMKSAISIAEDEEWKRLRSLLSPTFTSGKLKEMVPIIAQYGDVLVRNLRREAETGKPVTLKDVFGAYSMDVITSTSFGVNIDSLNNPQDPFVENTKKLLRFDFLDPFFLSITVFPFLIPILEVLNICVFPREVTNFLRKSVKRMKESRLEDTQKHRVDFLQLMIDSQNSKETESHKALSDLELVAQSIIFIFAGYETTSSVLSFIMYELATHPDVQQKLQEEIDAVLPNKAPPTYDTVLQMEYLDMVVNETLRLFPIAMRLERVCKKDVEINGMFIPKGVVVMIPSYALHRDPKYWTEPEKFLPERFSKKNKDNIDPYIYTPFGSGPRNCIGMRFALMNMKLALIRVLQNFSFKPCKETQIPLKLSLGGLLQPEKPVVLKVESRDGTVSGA

[12] = tested on: HO bone formation; assay: mouse model of HO bone formation; assay type: in vivo; conditions: dosing for 21 days
[13] = Parts 1 and 2, model included placebo

SMILES: COc1cc(-n2cnc(Nc3nc(N4CCC[C@H]4C(N)=O)nc4sccc34)c2)cc(OC)c1OC.O=C(O)CC(O)(CC(=O)O)C(=O)O [Compound A]
- safety and tolerability ([1]; Part 1, single ascending oral doses 5 mg to 25 mg): safe and generally well tolerated
- grade 3 or 4 adverse events ([1]; Part 1, single oral doses 5 mg to 25 mg): no grade 3 or 4 adverse events
- CYP2A6 inhibition [2]: not an inhibitor
- slope of ΔQTcF-concentration model ([3]; Parts 1 and 2): 0.0002
- ΔQTcF-concentration model fit line and confidence boundaries ([3]; Parts 1 and 2): below 10 msec
- slope of ΔHR-concentration model [3, 13]: 0.0004
- slope of ΔPR-concentration model [3, 13]: −0.0033
- slope of ΔQRS-concentration model [3, 13]: 0.0004
- model predicted HR changes ([3]; at all concentrations): < 1 bpm
- model predicted PR changes ([3]; at all concentrations): less than 2 msec
- effect on the ECG (12-lead Holter monitoring) ([3]; single doses up to 25 mg and multiple daily doses over 7 days up to 20 mg): absence of a clinically significant effect
- CYP2C9 inhibition [4]: is an inhibitor
- CYP2C8 inhibition [5]: is an inhibitor
- induction of numerical chromosomal aberrations [6]: negative
- CYP2C19 inhibition [7]: is an inhibitor
- off-target effects [8]: minimal off-target effects
- CYP3A inhibition [9]: not an inhibitor
- micronucleus-comet genotoxicity [10]: negative
- CYP3A4 inhibition [11]: is an inhibitor
- new HO bone formation [12]: significant reduction in new HO bone formation
